# Test results published in patent US20200030242A1, “ORAL DOSAGE FORM WITH DRYING AGENT FOR DELIVERY OF ACTIVE AGENT” (Entrega Inc., priority 2016, published 2020).
# Assay: Surgical Bioavailability Assay
# Format: in vivo, porcine model
# Details: neat active agent powder placed via surgical incision, compared to a control oral dosage form
# Description: “Surgical Bioavailability Assay” as used herein refers to an assay used to determine bioavailability of an active agent using a surgical testing method. In the Surgical Bioavailability Assay, a porcine model is also used, in which the animals undergo open surgery such that oral dosage forms to be tested can be placed at regions of the intestine of interest, such as the jejunum and ileum. After administration of anesthesia, a ventral midline incision is made to gain access to the animal's abdominal cavity. The jejunum and ileum are exposed, and incisions are made to manually place the oral dosage forms being tested. After oral dosage form placement is complete, the intestinal incisions are closed, and the midline incision can also be temporarily closed. Also, access can be made for blood collection via the carotid artery or jugular vein. […] The percent bioavailability of the active agent provided with the oral dosage form is determined on the basis of the active agent levels detected in these blood samples.
# Surgical Bioavailability Assay. […] The percent bioavailability of the active agent provided with the oral dosage form is determined on the basis of the active agent levels detected in these blood samples.
row,Compound,bioavailability (FIG. 4)
1,C[C@@H](O)[C@@H]1NC(=O)[C@H](CCCCN)NC(=O)[C@@H](Cc2c[nH]c3ccccc23)NC(=O)[C@H](Cc2ccccc2)NC(=O)[C@@H](NC(=O)[C@H](N)Cc2ccccc2)CSSC[C@@H](C(=O)N[C@H](CO)[C@@H](C)O)NC1=O [octreotide],good bioavailability
2,calcitonin,good bioavailability
